Results on 2 molecules are retold here after ChEMBL document CHEMBL3102745, “Inhibition of CK2: An Attractive Therapeutic Target for Cancer Treatment” (ACS Med Chem Lett, 2013).

Assay [1] concerns HCT-116. Nature of the assay: Antiproliferative activity against human HCT116 cells after 72 hrs by Alamar blue assay. In kind it is functional. As to conditions: HCT-116, 72 h.
The target in assay [2] is Casein kinase II subunit alpha (Homo sapiens) (UniProt P68400). In words: Inhibition of N-terminal 6 X His-tagged recombinant human full length Casein Kinase 2 alpha subunit expressed in Sf21 insect cells using BODIPY-FL-RRRDDDSDDD-CONH2 as substrate preincubated for 20 mins measured after 90 mins by fluorescence-based assay.
Sequence of Casein kinase II subunit alpha (Homo sapiens) (P68400 whole entry, looked up): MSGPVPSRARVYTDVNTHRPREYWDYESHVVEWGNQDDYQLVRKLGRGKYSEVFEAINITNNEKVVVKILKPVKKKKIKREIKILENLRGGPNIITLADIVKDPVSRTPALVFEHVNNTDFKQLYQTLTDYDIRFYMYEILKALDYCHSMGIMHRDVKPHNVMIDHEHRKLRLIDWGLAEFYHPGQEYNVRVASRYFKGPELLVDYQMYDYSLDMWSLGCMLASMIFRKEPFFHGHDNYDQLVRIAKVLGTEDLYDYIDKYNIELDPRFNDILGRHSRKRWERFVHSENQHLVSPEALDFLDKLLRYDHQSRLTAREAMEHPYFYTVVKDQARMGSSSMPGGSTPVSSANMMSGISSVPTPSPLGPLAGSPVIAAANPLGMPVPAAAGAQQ

Where only a bound is given, the exact number is not on record here.

Take `CC(=O)Nc1cc(Nc2cc(NC3CC3)n3ncc(C#N)c3n2)ccc1N(C)CCN(C)C`: in assay [1], the concentration for 50% growth inhibition (GI50) was determined as 30 nM. In assay [2], the half-inhibitory concentration (IC50) is less than 4000 nM.
For `CC(=O)Nc1cc(Nc2cc(NC3CC3)n3ncc(C#N)c3n2)ccc1N(C)CCN`, in assay [1], it took 9 nM to inhibit growth by half (GI50).
